Reference: patent US5929075A, “Apolipoprotein-B synthesis inhibitors” (Janssen Pharmaceutica, N.V., priority 1994, dated 1999)

System: apolipoprotein B
Test: Apolipoprotein B (apo B) inhibition test in cultured human liver cells (Hepg2-cells)
Type: cell-based
Details: concentration of the drug needed to reduce apoB secretion to 50% of the control, overnight at 37° C.
Procedure: Cultured human liver cells (Hepg2-cells), which synthesize and secrete low-density lipoproteins, were incubated overnight at 37° C. in a liquid medium containing radioactively labelled leucine. Thus radioactively labelled leucine was incorporated into the apolipoprotein B. The liquid medium was decanted and the apolipoprotein B was isolated by means of a double immunoprecipitation, i.e. first an apolipoprotein B-specific antibody (antibody1) was added to the liquid medium and subsequently a second antibody (antibody2) was added which binds specifically to the apoB-antibody1 -complex. The thus formed apoB-antibody1 -antibody2 complex precipitated and was isolated by centrifuge. Quantification of the amount of apolipoprotein B synthesized during the night resulted from measuring the radioactivity of the isolated complex. To measure the inhibiting activity of the test compound, that test compound was added to the liquid medium at different concentrations and the concentration of apolipoprotein B synthesized in the presence of a test compound (concentration apoB(after)) was compared to the concentration of apolipoprotein B which was synthesized in the absence of the test compound (concentration apoB(control)). For each experiment the inhibition of apolipoprotein-B formation was expressed as
% inhibition=100×(1-concentration of apoB(after)/concentration
When more experiments were carried out for the same concentration, the median value of the inhibition calculated for these experiments was calculated. IC50 -values (concentration of the drug needed to reduce apoB secretion to 50% of the control) were also computed.

Compound | IC50 [nM]
CCC(C)n1ncn(-c2ccc(N3CCN(c4ccc(OC[C@H]5CO[C@](CSc6ccccn6)(c6ccc(Cl)cc6)O5)cc4)CC3)cc2)c1=O (relative stereo) [Compound 105] | 99
CCC(C)n1cnn(-c2ccc(N3CCN(c4ccc(OC[C@H]5CO[C@](CSc6ncnn6C)(c6ccc(F)cc6F)O5)cc4)CC3)cc2)c1=O (relative stereo) [Compound 71] | 120
CCCn1cnn(-c2ccc(N3CCN(c4ccc(OC[C@@H]5CO[C@@](CSc6nncn6C)(c6ccc(Cl)cc6)O5)cc4)CC3)cc2)c1=O (relative stereo) [Compound 8] | 130
CC(C)n1cnn(-c2ccc(N3CCN(c4ccc(OC[C@@H]5CO[C@@](CSc6nncn6C)(c6ccc(Cl)cc6)O5)cc4)CC3)cc2)c1=O (relative stereo) [Compound 1] | 92
CCC(CC)n1ncn(-c2ccc(N3CCN(c4ccc(OC[C@H]5CO[C@](CSc6ncnn6C)(c6ccc(F)cc6F)O5)cc4)CC3)cc2)c1=O (relative stereo) [Compound 65] | 290
Cn1ncnc1SC[C@]1(c2ccc(F)cc2)OC[C@H](COc2ccc(N3CCN(c4ccc(-n5ncn(C6CCCC6)c5=O)cc4)CC3)cc2)O1 (relative stereo) [Compound 74] | 140
Cn1ncnc1SC[C@]1(c2ccc(F)cc2)OC[C@H](COc2ccc(N3CCN(c4ccc(-n5cnn(C6CCCC6)c5=O)cc4)CC3)cc2)O1 (relative stereo) [Compound 66] | 130
CCC(C)n1ncn(-c2ccc(N3CCN(c4ccc(OC[C@H]5CO[C@](CSc6nc(C)cc(C)n6)(c6ccc(Cl)cc6)O5)cc4)CC3)cc2)c1=O (relative stereo) [Compound 102] | 370
CCC(C)n1cnn(-c2ccc(N3CCN(c4ccc(OC[C@@H]5CO[C@@](CSc6nncn6C)(c6ccc(F)cc6)O5)cc4)CC3)cc2)c1=O (relative stereo) [Compound 9] | 110
CCCCCn1ncn(-c2ccc(N3CCN(c4ccc(OC[C@@H]5CO[C@@](CSc6nncn6C)(c6ccc(Cl)cc6)O5)cc4)CC3)cc2)c1=O (relative stereo) [Compound 32] | 180
CC(C)n1ncn(-c2ccc(N3CCN(c4ccc(OC[C@@H]5CO[C@@](CSc6nncn6C)(c6ccc(Cl)cc6)O5)cc4)CC3)cc2)c1=O (relative stereo) [Compound 33] | 91
Cn1cnnc1SC[C@]1(c2ccc(F)cc2)OC[C@H](COc2ccc(N3CCN(c4ccc(-n5ccn(C6CCCC6)c5=O)cc4)CC3)cc2)O1 (relative stereo) [Compound 128] | 180
CCC(CC)n1cnn(-c2ccc(N3CCN(c4ccc(OC[C@H]5CO[C@](CSc6ncnn6C)(c6ccc(F)cc6)O5)cc4)CC3)cc2)c1=O (relative stereo) [Compound 75] | 120
CCC(CC)n1cnn(-c2ccc(N3CCN(c4ccc(OC[C@@H]5CO[C@@](CSc6nncn6C)(c6ccc(F)cc6)O5)cc4)CC3)cc2)c1=O (relative stereo) [Compound 12] | 190
CCC(CC)n1ccn(-c2ccc(N3CCN(c4ccc(OC[C@H]5CO[C@](CSc6nncn6C)(c6ccc(Cl)cc6)O5)cc4)CC3)cc2)c1=O (relative stereo) [Compound 122] | 88
Cn1cnnc1SC[C@@]1(c2ccc(F)cc2F)OC[C@@H](COc2ccc(N3CCN(c4ccc(-n5cnn(C6CCCC6)c5=O)cc4)CC3)cc2)O1 (relative stereo) [Compound 37] | 230
CCC(C)n1ncn(-c2ccc(N3CCN(c4ccc(OC[C@H]5CO[C@](CSc6nnc(O)n6C)(c6ccc(Cl)cc6)O5)cc4)CC3)cc2)c1=O (relative stereo) [Compound 58] | 310
CCC(C)n1ncn(-c2ccc(N3CCN(c4ccc(OC[C@@H]5CO[C@@](CSc6nnc(C(F)(F)F)n6C)(c6ccc(Cl)cc6)O5)cc4)CC3)cc2)c1=O (relative stereo) [Compound 50] | 260
Cn1cnnc1SC[C@@]1(c2ccc(Cl)cc2)OC[C@@H](COc2ccc(N3CCN(c4ccc(-n5ncn(C6CCCC6)c5=O)cc4)CC3)cc2)O1 (relative stereo) [Compound 6] | 120
Cn1cnnc1SC[C@@]1(c2ccc(F)cc2F)OC[C@@H](COc2ccc(N3CCN(c4ccc(-n5ncn(C6CCCC6)c5=O)cc4)CC3)cc2)O1 (relative stereo) [Compound 13] | 510
CC(C)n1cnn(-c2ccc(N3CCN(c4ccc(OC[C@@H]5CO[C@@](CSc6nncn6C)(c6ccc(F)cc6)O5)cc4)CC3)cc2)c1=O (relative stereo) [Compound 4] | 260
CCC(C)n1ncn(-c2ccc(N3CCN(c4ccc(OC[C@@H]5CO[C@@](CSc6nncn6C)(c6ccc(F)cc6)O5)cc4)CC3)cc2)c1=O (relative stereo) [Compound 28] | 97
CCC(CC)n1cnn(-c2ccc(N3CCN(c4ccc(OC[C@H]5CO[C@](CSc6ncnn6C)(c6ccc(F)cc6F)O5)cc4)CC3)cc2)c1=O (relative stereo) [Compound 73] | 180
CCC(C)n1ncn(-c2ccc(N3CCN(c4ccc(OC[C@H]5CO[C@](CSc6nnnn6C)(c6ccc(Cl)cc6)O5)cc4)CC3)cc2)c1=O (relative stereo) [Compound 88] | 450
CCC(CC)n1ccn(-c2ccc(N3CCN(c4ccc(OC[C@H]5CO[C@](CSc6nncn6C)(c6ccc(F)cc6)O5)cc4)CC3)cc2)c1=O (relative stereo) [Compound 130] | 140

Compounds with a lower IC50, results first:

IC50 [nM] | Compound
81 | CC(C)n1cnn(-c2ccc(N3CCN(c4ccc(OC[C@H]5CO[C@](CSc6ncnn6C)(c6ccc(Cl)cc6)O5)cc4)CC3)cc2)c1=O (relative stereo) [Compound 68]
71 | CCC(C)n1ncn(-c2ccc(N3CCN(c4ccc(OC[C@H]5CO[C@](CSc6ncnn6CC)(c6ccc(Cl)cc6)O5)cc4)CC3)cc2)c1=O (relative stereo) [Compound 77]
69 | CC(C)Cn1cnn(-c2ccc(N3CCN(c4ccc(OC[C@H]5CO[C@](CSc6ncnn6C)(c6ccc(Cl)cc6)O5)cc4)CC3)cc2)c1=O (relative stereo) [Compound 87]
62 | CC(C)Cn1cnn(-c2ccc(N3CCN(c4ccc(OC[C@H]5CO[C@](CSc6nccs6)(c6ccc(Cl)cc6)O5)cc4)CC3)cc2)c1=O (relative stereo) [Compound 111]
58 | Cn1cnnc1SC[C@@]1(c2ccc(Cl)cc2)OC[C@@H](COc2ccc(N3CCN(c4ccc(-n5cnn(C6CCCC6)c5=O)cc4)CC3)cc2)O1 (relative stereo) [Compound 24]
53 | CCCn1nc(CC)nc1SC[C@]1(c2ccc(Cl)cc2)OC[C@H](COc2ccc(N3CCN(c4ccc(-n5cnn(C(C)CC)c5=O)cc4)CC3)cc2)O1 (relative stereo) [Compound 78]
51 | CCC(CC)n1ncn(-c2ccc(N3CCN(c4ccc(OC[C@@H]5CO[C@@](CSc6nncn6C)(c6ccc(Cl)cc6)O5)cc4)CC3)cc2)c1=O (relative stereo) [Compound 44]
49 | CCC(C)n1ncn(-c2ccc(N3CCN(c4ccc(OC[C@H]5CO[C@](CSc6nc(C)nn6C)(c6ccc(Cl)cc6)O5)cc4)CC3)cc2)c1=O (relative stereo) [Compound 81]
47 | CCC(C)n1cnn(-c2ccc(N3CCN(c4ccc(OC[C@@H]5CO[C@@](CSc6nncn6C)(c6ccc(Cl)cc6)O5)cc4)CC3)cc2)c1=O (relative stereo) [Compound 2]
46 | CCC(C)n1ncn(-c2ccc(N3CCN(c4ccc(OC[C@H]5CO[C@](CSc6ncnn6C)(c6ccc(F)cc6)O5)cc4)CC3)cc2)c1=O (relative stereo) [Compound 63]
45 | CCC(C)n1ncn(-c2ccc(N3CCN(c4ccc(OC[C@H]5CO[C@](CSc6nc(C)co6)(c6ccc(Cl)cc6)O5)cc4)CC3)cc2)c1=O (relative stereo) [Compound 107]
31 | CCC(C)n1ncn(-c2ccc(N3CCN(c4ccc(OC[C@@H]5CO[C@@](CSc6ncnn6C(C)C)(c6ccc(Cl)cc6)O5)cc4)CC3)cc2)c1=O (relative stereo) [Compound 82]
28 | CC(C)Cn1cnn(-c2ccc(N3CCN(c4ccc(OC[C@H]5CO[C@](CSc6ncn[nH]6)(c6ccc(Cl)cc6)O5)cc4)CC3)cc2)c1=O (relative stereo) [Compound 84]
27 | CCC(C)n1ccn(-c2ccc(N3CCN(c4ccc(OC[C@H]5CO[C@](CSc6nncn6C)(c6ccc(Cl)cc6)O5)cc4)CC3)cc2)c1=O (relative stereo) [Compound 93]
26 | CCC(C)n1cnn(-c2ccc(N3CCN(c4ccc(OC[C@H]5CO[C@](CSc6ncnn6C)(c6ccc(Cl)cc6)O5)cc4)CC3)cc2)c1=O (relative stereo) [Compound 69]
26 | CCC(C)n1ncn(-c2ccc(N3CCN(c4ccc(OC[C@H]5CO[C@](CSc6nccs6)(c6ccc(Cl)cc6)O5)cc4)CC3)cc2)c1=O (relative stereo) [Compound 108]
24 | CCC(C)n1ncn(-c2ccc(N3CCN(c4ccc(OC[C@H]5CO[C@](CSc6ncn[nH]6)(c6ccc(Cl)cc6)O5)cc4)CC3)cc2)c1=O (relative stereo) [Compound 76]
23 | CC[C@@H](C)n1ncn(-c2ccc(N3CCN(c4ccc(OC[C@@H]5CO[C@@](CSc6nncn6C)(c6ccc(Cl)cc6)O5)cc4)CC3)cc2)c1=O [Compound 40]
15 | CCC(C)n1cnn(-c2ccc(N3CCN(c4ccc(OC[C@H]5CO[C@](CSc6ncn[nH]6)(c6ccc(Cl)cc6)O5)cc4)CC3)cc2)c1=O (relative stereo) [Compound 83]
